Values quoted from earlier work as cited in patent US6372499B1, “Polymeric complexes for the transfection of nucleic acids, with residues causing the destabilisation of cell membranes” (I.D.M. Immuno-Designed Molecules, priority 1996, dated 2002).

Columns and labels:
[1] = persons, daily dose of 300 mg per day, after a few days
cells = conditions: after a few hours

In the case of `CCN(CC)CCCC(C)Nc1ccnc2cc(Cl)ccc12` (stereo not drawn) [chloroquine], the plasma concentration [1] is listed as “about 0.7 μM”, the “intracellular concentration relative to the concentration in the medium” value (cells) is listed as “more than 100 times higher” and the intracellular concentration (cells; initial concentration 100 μM) is listed as “exceed 10 mM”.
